Data: patent US5834427A, “Casein phosphopeptide, casein containing same and process for the preparation thereof” (Han; Sang Kee, priority 1995, dated 1998)
No end group written: not given here.

Assay: Efficacy test for calcium solubilizing effect in vivo (soluble calcium in small intestine contents, atomic absorption spectrometer)
Set-up: species or system Wister Rats
Details: for Calcium concentration in the small intestine, Lower part / Calcium concentration in the small intestine, Total / Calcium concentration in the small intestine, Upper part: measured one hour after feeding, mean ± standard deviation
Protocol: Efficacy test for calcium solubilizing effect In vivo
Forty Wister Rats weighing about 120 g on an average were supplied with a controlled diet consisting of 24 wt % of crude proteins, 5 wt % of crude fats, 60 wt % of starches, 5 wt % of crude fibers, 5 wt % of minerals and 1 wt % of vitamins for a week and then starved for 24 hours. The rats were divided into 4 groups, each group including 10 rats.
Rats of the first group were supplied with a controlled diet including 10 wt % of the beta-casein H for 1.5 hours.
Rats of the second group were supplied with a controlled diet including 10 wt % of a conventional beta-casein for 1.5 hours.
Rats of the third group were supplied with a controlled diet including 1 wt % of the CPP in accordance with the present invention for 1.5 hours.
Rats of the fourth group were supplied with a controlled diet including 1 wt % of the conventional CPP for 1.5 hours.
All rats were allowed to freely have the controlled diets as much as they can. One hour after the completion of the above feeding, all rats were anesthetized, and the small intestines were excised therefrom. The small intestines were washed with a saline solution and then divided into two parts, i.e, the upper part and the lower part.
Thereafter, the contents in the small intestine were isolated, homogenized and centrifugated. A calcium in the supernant was measured three times by an atomic absorption spectrometer (Perkin Elmer Co.).

[1] = CPP feed, 3rd Group (inventive CPP) over 4th Group (conventional CPP)
[2] = CPP feed, controlled diet including 1 wt % CPP for 1.5 hours
[3] = casein feed, controlled diet including 10 wt % casein for 1.5 hours

Molecule | Improvement (%) of calcium concentration, Lower part [1] [%] | Improvement (%) of calcium concentration, Total [1] [%] | Improvement (%) of calcium concentration, Upper part [1] [%] | Improvement (%) of calcium concentration, Total (CPP feed, 3rd Group (inventive CPP) over 4th Group (conventional CPP), listed as present CPP) [%] | Calcium concentration in the small intestine, Lower part [2] [ppm] | Calcium concentration in the small intestine, Total [2] [ppm] | Calcium concentration in the small intestine, Upper part [2] [ppm] | Calcium concentration in the small intestine, Total (CPP feed, controlled diet including 1 wt % CPP for 1.5 hours, listed as present CPP) [ppm] | Calcium concentration in the small intestine, Lower part [3] [ppm] | Calcium concentration in the small intestine, Total [3] [ppm] | Calcium concentration in the small intestine, Upper part [3] [ppm]
CPP in accordance with the present invention: casein phosphopeptide of SEQ. ID NO: 1, 28 amino acids, 25th Arg of the conventional CPP substituted by Cys (RELEELNVPGEIVESLSSSEESITCINK; also: phosphorylated, sites not given here) | 29.8 | 23.1 | 7.0 | 23 | 51.02 ± 3.1 | 68.20 ± 2.5 | 17.18 ± 1.9 | 68.20 |  |  | 
conventional beta-casein: conventional beta-casein fed to the second group as comparison (protein, UniProt P02666 16-224, looked up) Beta-casein: RELEELNVPGEIVESLSSSEESITRINKKIEKFQSEEQQQTEDELQDKIHPFAQTQSLVYPFPGPIPNSLPQNIPPLTQTPVVVPPFLQPEVMGVSKVKEAMAPKHKEMPFPKYPVEPFTESQSLTLTDVENLHLPLPLLQSWMHQPHQPLPPTVMFPPQSVLSLSQSKVLPVPQKAVPYPQRDMPIQAFLLYQEPVLGPVRGPFPIIV |  |  |  |  |  |  |  |  | 35.11 ± 2.3 | 50.60 ± 2.0 | 15.49 ± 1.7
